# Measured values as given in article PMC2074590 (British Journal of Cancer, 1996).
# Like-named read-outs stand apart in the source and are kept apart here.
# Tests used:
# [1] = Serum concentrations of ICI 182780 by radioimmunoassay (pharmacokinetics of monthly i.m. depot); format: in vivo, human; settings: for Cmax: human, serum;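 for AUC on entry: AUC over the first monthly dosing interval after the first injection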
# Protocol: Bridsh Journal of Cancer (1996) 74, 300-308 ? […] The agent was administered as a monthly depot intramuscular injection. […] The study was approved by the ethics committees of each clinical centre. Patients were eligible for the study if they were post- menopausal and age less than 81 years, with histologically verified breast cancer. […] Patients were excluded if they had serious intercurrent disease, a WHO performance status of greater than 2, and a life expectancy of less than 3 months or had received previous cytotoxic chemotherapy for advanced breast cancer. […] Patients 5-19 received 250 mg month-1 i.m. from the outset. […] Tumour response to therapy was evaluated according to UICC criteria (Hayward et al., 1977). To qualify for the 'no change' category, tumour growth had to stabilise for more than 6 months (Howell et al., 1988; Robertson et al., 1989). Body weight was recorded at each monthly review in the majority of patients. […] The procedure was applied after solid base clean up of a diethyl ether/hexane extract of serum. The study limit of quantification was 0.68 ng ml-'. […] Gonadotrophins follicle-stimulating hormone and lutenising hormone (FSH and LH) and SHBG were measured by RIA in the Regional Radioimmunoassay Laboratory of the University Hospital of South Manchester. Prolactin was measured by immunoradiometric assay using reagents supplied by Netria. Total cholesterol levels were determined enzymatically using a commercially available reagent (Diamed, Switzerland). Triglyceride levels were determined by the glyceryl phosphate oxidase-peroxidase-antiperox- idase method using a commercially available kit (Boehringer Mannheim, Germany). High-density lipoprotein (HDL) cholesterol levels were measured after pretreatment of the serum samples with buffered magnesium phosphotungstate, which selectively precipitates low-density lipoprotein (LDL) cholesterol, very low-density lipoprotein (VLDL) cholesterol and chylomicrons, leaving HDL cholesterol in the super- natant. Serum levels of LDL cholesterol were calculated using the Friedewald equation (Friedewald et al., 1972). Endometrial assessment Endometrial thickness was measured in transverse section by transabdominal ultrasound using a Siemens Sonoline SL2 with a 3.5 MHz sector probe. Baseline and repeat scans at 3-6 monthly intervals were performed in five patients. […] Pharmacokinectic data were analysed using para- metric statistics. Data relating to body weight, serum gonadotrophin, SHBG and lipid levels were analysed using non-parametric statistics. The null hypothesis was rejected at a probability level of P<0.05. […] However, samples were not available between day 2 and day 8.
# [2] = tested on: ER; parameters: method as in Wakeling et al., 1991; settings: ref Wakeling et al., 1991; cited from earlier work
# [3] = 250 mg monthly i.m., first month
# [4] = 250 mg monthly i.m., sixth month
# [5] = patient 5 (partial response), 250 mg
# [6] = patient 8 (partial response), 250 mg
# [7] = patient 10 (partial response), 250 mg
# [8] = patient 13 (progressive disease), 250 mg
# [9] = patient 14 (partial response), 250 mg
# [10] = patient 16 (partial response), 250 mg
structure (smiles),measurement,setting,value
"C[C@]12CC[C@@H]3c4ccc(O)cc4C[C@@H](CCCCCCCCC[S+]([O-])CCCC(F)(F)C(F)(F)F)[C@H]3[C@@H]1CC[C@@H]2O (stereo partly shown) [ICI 182780, 7a-[9(4,4,5,5,pentafluoropentyl-sulphinyl)nonyl]oestra-1 ,3,5,(10)-triene-3,17,B-diol]","AUC, first month",[1]; [3],140.5 ng·days/mL
same,"Mean end-of-month concentration, first month",[1]; [3],3.1 ng/mL
same,"AUC, sixth month",[1]; [4],206.8 ng·days/mL
same,"Mean end-of-month concentration, sixth month",[1]; [4],5.6 ng/mL
same,"Difference in Cmax and AUC, partial response vs no change patients",[1]; after 6 months of treatment,no significant difference
same,Increase in AUC,[1]; after 6 months vs month 1,50%
same,Increase in mean end of month drug levels,[1]; after 6 months vs month 1,80%
same,Cmax,"[1]; female, im, 250 mg, 250 mg monthly i.m., first month, read-out: Cmax, first month (mean)",10.5 ng/mL
same,Cmax,"[1]; female, im, 250 mg, 250 mg monthly i.m., sixth month, read-out: Cmax, sixth month (mean)",12.6 ng/mL
same,Cmax,"[1]; female, intramuscular, no change patients, read-out: Median Cmax at month 6",12.8 ng/mL
same,Cmax,"[1]; female, intramuscular, no change patients, read-out: Median Cmax on entry",9.3 ng/mL
same,Cmax,"[1]; female, intramuscular, partial response patients, read-out: Median Cmax at month 6",11 ng/mL
same,Cmax,"[1]; female, intramuscular, partial response patients, read-out: Median Cmax on entry",7.7 ng/mL
same,Cmax,"[1]; female, intramuscular, progressive disease patients, read-out: Median Cmax on entry",5.6 ng/mL
same,Release of drug from slow release formulation,[1]; following both the 100 mg and 250 mg doses,continuous release of drug
same,Cmax,"[1]; intramuscular, 100 mg, patient 1 (progressive disease), 100 mg dose at entry, read-out: Cmax on entry",4.4 ng/mL
same,Cmax,"[1]; intramuscular, 100 mg, patient 2 (no change), 100 mg dose at entry, read-out: Cmax on entry",1.8 ng/mL
same,Cmax,"[1]; intramuscular, 100 mg, patient 3 (partial response), 100 mg dose at entry, read-out: Cmax on entry",2.9 ng/mL
same,Cmax,"[1]; intramuscular, 100 mg, patient 4 (progressive disease), 100 mg dose at entry, read-out: Cmax on entry",1.6 ng/mL
same,Cmax,"[1]; intramuscular, 250 mg, patient 2 (no change), 250 mg, read-out: Cmax at month 6",7.5 ng/mL
same,Cmax,"[1]; intramuscular, 250 mg, patient 3 (partial response), 250 mg, read-out: Cmax at month 6",9.9 ng/mL
same,Cmax,"[1]; intramuscular, 250 mg, patient 5 (partial response), 250 mg, read-out: Cmax at month 6",17.6 ng/mL
same,Cmax,"[1]; intramuscular, 250 mg, patient 5 (partial response), 250 mg, read-out: Cmax on entry",17.4 ng/mL
same,Cmax,"[1]; intramuscular, 250 mg, patient 6 (partial response), 250 mg, read-out: Cmax on entry",7.7 ng/mL
same,Cmax,"[1]; intramuscular, 250 mg, patient 7 (progressive disease), 250 mg, read-out: Cmax on entry",5.5 ng/mL
same,Cmax,"[1]; intramuscular, 250 mg, patient 8 (partial response), 250 mg, read-out: Cmax at month 6",10 ng/mL
same,Cmax,"[1]; intramuscular, 250 mg, patient 8 (partial response), 250 mg, read-out: Cmax on entry",5.9 ng/mL
same,Cmax,"[1]; intramuscular, 250 mg, patient 9 (progressive disease), 250 mg, read-out: Cmax on entry",9.7 ng/mL
same,Cmax,"[1]; intramuscular, 250 mg, patient 10 (partial response), 250 mg, read-out: Cmax at month 6",9.1 ng/mL
same,Cmax,"[1]; intramuscular, 250 mg, patient 10 (partial response), 250 mg, read-out: Cmax on entry",14.8 ng/mL
same,Cmax,"[1]; intramuscular, 250 mg, patient 11 (progressive disease), 250 mg, read-out: Cmax on entry",29.9 ng/mL
same,Cmax,"[1]; intramuscular, 250 mg, patient 12 (no change), 250 mg, read-out: Cmax at month 6",12.2 ng/mL
same,Cmax,"[1]; intramuscular, 250 mg, patient 12 (no change), 250 mg, read-out: Cmax on entry",7.2 ng/mL
same,Cmax,"[1]; intramuscular, 250 mg, patient 13 (progressive disease), 250 mg, read-out: Cmax at month 6",15.8 ng/mL
same,Cmax,"[1]; intramuscular, 250 mg, patient 13 (progressive disease), 250 mg, read-out: Cmax on entry",5.6 ng/mL
same,Cmax,"[1]; intramuscular, 250 mg, patient 14 (partial response), 250 mg, read-out: Cmax at month 6",13.5 ng/mL
same,Cmax,"[1]; intramuscular, 250 mg, patient 14 (partial response), 250 mg, read-out: Cmax on entry",9.1 ng/mL
same,Cmax,"[1]; intramuscular, 250 mg, patient 15 (no change), 250 mg, read-out: Cmax at month 6",15.8 ng/mL
same,Cmax,"[1]; intramuscular, 250 mg, patient 15 (no change), 250 mg, read-out: Cmax on entry",9 ng/mL
same,Cmax,"[1]; intramuscular, 250 mg, patient 16 (partial response), 250 mg, read-out: Cmax at month 6",12 ng/mL
same,Cmax,"[1]; intramuscular, 250 mg, patient 16 (partial response), 250 mg, read-out: Cmax on entry",4.4 ng/mL
same,Cmax,"[1]; intramuscular, 250 mg, patient 17 (no change), 250 mg, read-out: Cmax at month 6",14.9 ng/mL
same,Cmax,"[1]; intramuscular, 250 mg, patient 17 (no change), 250 mg, read-out: Cmax on entry",9.5 ng/mL
same,Cmax,"[1]; intramuscular, 250 mg, patient 18 (no change), 250 mg, read-out: Cmax at month 6",10.2 ng/mL
same,Cmax,"[1]; intramuscular, 250 mg, patient 18 (no change), 250 mg, read-out: Cmax on entry",10.3 ng/mL
same,Cmax,"[1]; intramuscular, 250 mg, patient 19 (no change), 250 mg, read-out: Cmax at month 6",17.2 ng/mL
same,Cmax,"[1]; intramuscular, 250 mg, patient 19 (no change), 250 mg, read-out: Cmax on entry",11 ng/mL
same,Difference in median Cmax and AUC between responders and non-responders,[1]; in vivo,no significant difference
same,Increase in AUC on multiple dosing,"[1]; month 6 vs month 1, 250 mg",1.5 fold
same,Increase in Cmax on multiple dosing,"[1]; month 6 vs month 1, 250 mg",1.2 fold
same,Serum level at day 28 relative to threshold,"[1]; monthly depot i.m., day 28",above the projected therapeutic threshold
same,Median AUC at month 6,[1]; no change patients,190.9 ng·days/mL
same,Median AUC on entry,[1]; no change patients,131.6 ng·days/mL
same,Median AUC at month 6,[1]; partial response patients,191.0 ng·days/mL
same,Median AUC on entry,[1]; partial response patients,118.7 ng·days/mL
same,AUC at month 6,"[1]; patient 2 (no change), 250 mg",135.8 ng·days/mL
same,AUC at month 6,"[1]; patient 3 (partial response), 250 mg",139.5 ng·days/mL
same,AUC at month 6,[1]; [5],203.0 ng·days/mL
same,AUC on entry,[1]; [5],188.4 ng·days/mL
same,AUC on entry,"[1]; patient 6 (partial response), 250 mg",118.3 ng·days/mL
same,AUC on entry,"[1]; patient 7 (progressive disease), 250 mg",105.7 ng·days/mL
same,AUC at month 6,[1]; [6],175.2 ng·days/mL
same,AUC on entry,[1]; [6],118.7 ng·days/mL
same,AUC on entry,"[1]; patient 9 (progressive disease), 250 mg",138.2 ng·days/mL
same,AUC at month 6,[1]; [7],191.7 ng·days/mL
same,AUC on entry,[1]; [7],206.6 ng·days/mL
same,AUC on entry,"[1]; patient 11 (progressive disease), 250 mg",289.3 ng·days/mL
same,AUC at month 6,"[1]; patient 12 (no change), 250 mg",179.3 ng·days/mL
same,AUC on entry,"[1]; patient 12 (no change), 250 mg",143.6 ng·days/mL
same,AUC at month 6,[1]; [8],243.7 ng·days/mL
same,AUC on entry,[1]; [8],36.7 ng·days/mL
same,AUC at month 6,[1]; [9],266.0 ng·days/mL
same,AUC on entry,[1]; [9],134.6 ng·days/mL
same,AUC at month 6,"[1]; patient 15 (no change), 250 mg",201.7 ng·days/mL
same,AUC on entry,"[1]; patient 15 (no change), 250 mg",107.8 ng·days/mL
same,AUC at month 6,[1]; [10],190.8 ng·days/mL
same,AUC on entry,[1]; [10],72.8 ng·days/mL
same,AUC at month 6,"[1]; patient 17 (no change), 250 mg",297.6 ng·days/mL
same,AUC on entry,"[1]; patient 17 (no change), 250 mg",125.5 ng·days/mL
same,AUC at month 6,"[1]; patient 18 (no change), 250 mg",156.1 ng·days/mL
same,AUC on entry,"[1]; patient 18 (no change), 250 mg",183.2 ng·days/mL
same,AUC at month 6,"[1]; patient 19 (no change), 250 mg",308.0 ng·days/mL
same,AUC on entry,"[1]; patient 19 (no change), 250 mg",137.8 ng·days/mL
same,Median AUC on entry,[1]; progressive disease patients,79.4 ng·days/mL
same,Potency and affinity for the ER relative to ICI 164384,[2],greater potency and affinity for the ER
